According to ChEMBL document CHEMBL2074542, “Differential recognition of beta -lactam antibiotics by intestinal and renal peptide transporters, PEPT 1 and PEPT 2” (J Biol Chem, 1995):
Peptide text beside a SMILES is read from it.

Experiments:
[1] = molecular target: T1, Solute carrier family 15 member 2 (Homo sapiens, UniProt Q16348); assay: TP_TRANSPORTER: inhibition of Gly-Sar uptake (Gly-Sar: 50 uM) in PEPT2-expressing HeLa cells; format: functional, cell-based
T1 sequence (Q16348 whole entry): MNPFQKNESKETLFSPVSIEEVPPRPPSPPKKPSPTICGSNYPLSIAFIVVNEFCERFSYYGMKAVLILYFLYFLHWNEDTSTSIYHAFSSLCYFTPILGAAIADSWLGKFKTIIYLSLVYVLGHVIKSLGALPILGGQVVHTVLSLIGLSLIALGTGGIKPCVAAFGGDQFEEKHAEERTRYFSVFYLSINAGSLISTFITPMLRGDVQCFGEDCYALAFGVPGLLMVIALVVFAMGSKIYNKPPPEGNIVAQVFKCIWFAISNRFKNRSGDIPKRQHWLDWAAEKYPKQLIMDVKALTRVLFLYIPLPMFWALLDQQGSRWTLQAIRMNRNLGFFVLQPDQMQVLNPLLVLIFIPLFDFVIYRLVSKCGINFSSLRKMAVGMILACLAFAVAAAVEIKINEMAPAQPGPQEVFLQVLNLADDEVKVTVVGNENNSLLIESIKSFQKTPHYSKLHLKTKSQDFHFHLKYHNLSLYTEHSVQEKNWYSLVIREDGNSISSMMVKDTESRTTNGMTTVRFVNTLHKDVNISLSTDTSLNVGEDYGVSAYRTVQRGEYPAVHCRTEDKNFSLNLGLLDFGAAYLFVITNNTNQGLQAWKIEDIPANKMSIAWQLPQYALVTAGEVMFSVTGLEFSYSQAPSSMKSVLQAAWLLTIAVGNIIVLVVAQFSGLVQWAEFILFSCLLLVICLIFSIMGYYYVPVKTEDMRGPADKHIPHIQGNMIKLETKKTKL

[2] = molecular target: T1, Solute carrier family 15 member 2; assay: TP_TRANSPORTER: inhibition of Gly-Sar uptake in SKPT cells; format: functional, cell-based
[3] = molecular target: T2, Solute carrier family 15 member 1 (Homo sapiens, UniProt P46059); assay: TP_TRANSPORTER: inhibition of Gly-Sar uptake (Gly-Sar: 5 uM) in Caco-2 cells; format: functional, cell-based
T2 sequence (P46059 whole entry): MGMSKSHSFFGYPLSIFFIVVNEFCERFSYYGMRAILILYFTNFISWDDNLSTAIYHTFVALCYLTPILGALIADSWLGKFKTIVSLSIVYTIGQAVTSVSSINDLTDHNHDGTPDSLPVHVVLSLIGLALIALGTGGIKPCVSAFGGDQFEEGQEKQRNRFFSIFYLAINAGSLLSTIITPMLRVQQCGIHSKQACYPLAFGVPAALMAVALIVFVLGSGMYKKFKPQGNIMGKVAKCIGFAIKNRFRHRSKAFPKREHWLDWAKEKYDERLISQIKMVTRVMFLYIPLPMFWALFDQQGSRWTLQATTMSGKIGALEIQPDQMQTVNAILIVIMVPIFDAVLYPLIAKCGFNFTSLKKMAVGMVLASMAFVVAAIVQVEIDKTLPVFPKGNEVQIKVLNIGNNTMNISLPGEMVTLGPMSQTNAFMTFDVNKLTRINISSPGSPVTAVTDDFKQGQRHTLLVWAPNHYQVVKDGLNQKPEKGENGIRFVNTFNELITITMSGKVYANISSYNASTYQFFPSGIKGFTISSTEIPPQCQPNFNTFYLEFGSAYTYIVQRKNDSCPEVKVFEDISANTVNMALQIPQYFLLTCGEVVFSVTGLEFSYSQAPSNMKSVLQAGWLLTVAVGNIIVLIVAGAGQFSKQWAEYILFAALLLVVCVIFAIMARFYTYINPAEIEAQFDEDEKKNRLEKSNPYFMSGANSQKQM

[4] = molecular target: T2, Solute carrier family 15 member 1
Description: TP_TRANSPORTER: inhibition of Gly-Sar uptake (Gly-Sar: 25 uM) in PEPT1-expressing HeLa cells

[5] = molecular target: T1, Solute carrier family 15 member 2; assay: TP_TRANSPORTER: inhibition of Cephalexin uptake in SKPT cells; format: functional, cell-based
[6] = molecular target: T3, Solute carrier family 15 member 2 (Homo sapiens) (UniProt Q16348); assay: TP_TRANSPORTER: uptake in PEPT2-expressing HeLa cells; format: functional, cell-based
T3 sequence (whole entry): T1 sequence (Q16348 whole entry)

[7] = substrate: CC1=C(C(=O)O)N2C(=O)[C@@H](NC(=O)[C@H](N)c3ccccc3)[C@H]2SC1; assay: TP_TRANSPORTER: uptake in SKPT cells; format: functional, cell-based

## CC1(C)S[C@@H]2[C@H](NC(=O)C3(N)CCCCC3)C(=O)N2[C@H]1C(=O)O [CYCLACILLIN]
[1]
  IC50: 610 µM
[2]
  Ki: 39.1 µM
[3]
  IC50: 0.6 mM
[4]
  IC50: 350 µM

## CN(CC(=O)O)C(=O)CN [GLYCYLSARCOSINE] (HELM PEPTIDE1{G.[Sar]}$$$$V2.0)
[5]
  Ki: 64 µM

## CC1=C(C(=O)O)N2C(=O)[C@@H](NC(=O)[C@H](N)c3ccc(O)cc3)[C@H]2SC1 [CEFADROXIL]
[1]
  IC50: 66 µM
[2]
  Ki: 2.8 µM
[3]
  IC50: 5.4 mM
[4]
  IC50: 870 µM

## CC1=C(C(=O)O)N2C(=O)[C@@H](NC(=O)[C@H](N)c3ccccc3)[C@H]2SC1 [CEPHALEXIN ANHYDROUS]
[2]
  Ki: 68.2 µM
[6]
  Activity: substrate [+]

B1: Solute carrier family 15 member 2 (Rattus norvegicus), Q63424 (protein)
chain: MNPFQKNESKETLFSPVSTEEMLPRPPSPPKKSPPKIFGSSYPVSIAFIVVNEFCERFSYYGMKAVLTLYFLYFLHWNEDTSTSVYHAFSSLCYFTPILGAAIADSWLGKFKTIIYLSLVYVLGHVFKSLGAIPILGGKMLHTILSLVGLSLIALGTGGIKPCVAAFGGDQFEEEHAEARTRYFSVFYLAINAGSLISTFITPMLRGDVKCFGQDCYALAFGVPGLLMVLALVVFAMGSKMYRKPPPEGNIVAQVIKCIWFALCNRFRNRSGDLPKRQHWLDWAAEKYPKHLIADVKALTRVLFLYIPLPMFWALLDQQGSRWTLQANKMNGDLGFFVLQPDQMQVLNPFLVLIFIPLFDLVIYRLISKCRINFSSLRKMAVGMILACLAFAVAALVETKINGMIHPQPASQEIFLQVLNLADGDVKVTVLGSRNNSLLVESVSSFQNTTHYSKLHLEAKSQDLHFHLKYNSLSVHNDHSVEEKNCYQLLIHQDGESISSMLVKDTGIKPANGMAAIRFINTLHKDLNISLDTDAPLSVGKDYGVSAYRTVLRGKYPAVHCETEDKVFSLDLGQLDFGTTYLFVITNITSQGLQAWKAEDIPVNKLSIAWQLPQYVLVTAAEVMFSVTGLEFSYSQAPSSMKSVLQAAWLLTVAVGNIIVLVVAQFSGLAQWAEFVLFSCLLLVVCLIFSVMAYYYVPLKSEDTREATDKQIPAVQGNMINLETKNTRL
[7]
  Km: 49 µM
